Source: ChEMBL document CHEMBL1139788, “Potent, nonsteroidal selective androgen receptor modulators (SARMs) based on 8H-[1,4]oxazino[2,3-f]quinolin-8-ones” (Bioorg Med Chem Lett, 2007)
pEC50, pIC50: −log10 of the molar value. Activity calls are given as the source filed them. The rule behind the calls is not given here.

Key:
Androgen receptor [1] = target: T1, Androgen receptor (Homo sapiens, UniProt P10275)
T1 sequence (P10275 whole entry): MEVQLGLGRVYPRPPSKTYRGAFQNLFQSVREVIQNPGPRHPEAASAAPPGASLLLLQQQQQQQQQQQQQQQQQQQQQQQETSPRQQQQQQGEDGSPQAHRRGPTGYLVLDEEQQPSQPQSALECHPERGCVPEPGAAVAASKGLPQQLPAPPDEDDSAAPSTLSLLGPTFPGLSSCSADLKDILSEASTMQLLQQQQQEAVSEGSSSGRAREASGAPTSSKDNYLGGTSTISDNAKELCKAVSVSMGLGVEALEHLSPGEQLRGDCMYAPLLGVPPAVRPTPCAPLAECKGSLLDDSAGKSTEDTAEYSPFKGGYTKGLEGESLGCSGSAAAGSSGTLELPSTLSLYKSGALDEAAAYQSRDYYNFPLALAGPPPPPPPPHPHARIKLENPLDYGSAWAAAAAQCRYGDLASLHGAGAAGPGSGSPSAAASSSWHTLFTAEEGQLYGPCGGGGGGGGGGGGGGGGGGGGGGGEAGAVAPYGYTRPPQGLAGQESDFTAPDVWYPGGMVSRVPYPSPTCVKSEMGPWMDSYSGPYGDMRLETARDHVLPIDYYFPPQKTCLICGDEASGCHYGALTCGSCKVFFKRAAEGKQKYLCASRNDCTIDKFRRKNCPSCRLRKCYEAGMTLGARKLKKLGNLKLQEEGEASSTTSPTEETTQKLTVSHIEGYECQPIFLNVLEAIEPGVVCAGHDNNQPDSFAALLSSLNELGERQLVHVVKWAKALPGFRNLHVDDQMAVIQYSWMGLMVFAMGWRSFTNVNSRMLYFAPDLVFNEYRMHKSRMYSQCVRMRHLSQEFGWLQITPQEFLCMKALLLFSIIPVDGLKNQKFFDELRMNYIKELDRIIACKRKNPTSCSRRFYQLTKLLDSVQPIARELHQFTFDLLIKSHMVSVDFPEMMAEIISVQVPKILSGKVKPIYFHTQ
Description: Agonist activity at human androgen receptor expressed in CV1 cells by transcriptional activation assay

Androgen receptor [2] = target: T1, Androgen receptor; remark: listed apart in the source
Description: Antagonist activity at human androgen receptor expressed in CV1 cells by transcriptional activation assay

[3] = target: T2, Progesterone receptor (Homo sapiens) (UniProt P06401); assay: Agonist activity at progesterone receptor by transactivation assay; format: functional
T2 sequence (whole entry): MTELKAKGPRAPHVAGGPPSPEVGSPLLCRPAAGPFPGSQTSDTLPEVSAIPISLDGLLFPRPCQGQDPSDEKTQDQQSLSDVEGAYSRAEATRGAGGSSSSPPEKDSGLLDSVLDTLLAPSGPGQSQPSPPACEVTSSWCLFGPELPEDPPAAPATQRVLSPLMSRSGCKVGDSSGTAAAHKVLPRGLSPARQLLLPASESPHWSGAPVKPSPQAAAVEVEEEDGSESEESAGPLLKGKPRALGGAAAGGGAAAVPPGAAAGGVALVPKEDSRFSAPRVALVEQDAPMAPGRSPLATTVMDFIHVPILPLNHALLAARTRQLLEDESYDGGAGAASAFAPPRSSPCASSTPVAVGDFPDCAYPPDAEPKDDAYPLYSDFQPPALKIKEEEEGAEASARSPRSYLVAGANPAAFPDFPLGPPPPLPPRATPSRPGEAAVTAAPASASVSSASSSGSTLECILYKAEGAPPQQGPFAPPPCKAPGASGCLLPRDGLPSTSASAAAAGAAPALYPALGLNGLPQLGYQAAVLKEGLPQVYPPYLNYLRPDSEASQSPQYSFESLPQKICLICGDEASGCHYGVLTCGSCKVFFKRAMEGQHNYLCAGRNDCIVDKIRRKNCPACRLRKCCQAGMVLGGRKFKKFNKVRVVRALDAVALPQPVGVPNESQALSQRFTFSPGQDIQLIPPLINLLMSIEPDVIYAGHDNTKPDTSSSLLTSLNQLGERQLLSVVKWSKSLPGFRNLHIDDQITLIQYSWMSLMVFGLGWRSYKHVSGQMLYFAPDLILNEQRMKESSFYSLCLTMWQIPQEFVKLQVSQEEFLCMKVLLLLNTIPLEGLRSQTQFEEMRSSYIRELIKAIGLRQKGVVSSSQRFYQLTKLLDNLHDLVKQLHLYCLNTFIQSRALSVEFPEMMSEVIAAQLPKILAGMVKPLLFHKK

Rattus norvegicus [4] = assay: Reduced activity on ventral prostate weight in 2-week castrated mature rat model at 100 mg/kg; format: functional, organism-based; set-up: dose 100 mg/kg; conditions: Prostate gland
[5] = target: T2, Progesterone receptor (Homo sapiens); assay: Antagonist activity at progesterone receptor by transactivation assay; format: functional
Rattus norvegicus [6] = assay: Effect on levator ani muscle weight maintenance in 2-week castrated mature rat model at 10 mg/kg; format: functional, organism-based; set-up: dose 10 mg/kg
[7] = target: T3, Mineralocorticoid receptor (Homo sapiens) (UniProt P08235); assay: Antagonist activity at mineralocorticoid receptor by transactivation assay; format: functional
T3 sequence (whole entry): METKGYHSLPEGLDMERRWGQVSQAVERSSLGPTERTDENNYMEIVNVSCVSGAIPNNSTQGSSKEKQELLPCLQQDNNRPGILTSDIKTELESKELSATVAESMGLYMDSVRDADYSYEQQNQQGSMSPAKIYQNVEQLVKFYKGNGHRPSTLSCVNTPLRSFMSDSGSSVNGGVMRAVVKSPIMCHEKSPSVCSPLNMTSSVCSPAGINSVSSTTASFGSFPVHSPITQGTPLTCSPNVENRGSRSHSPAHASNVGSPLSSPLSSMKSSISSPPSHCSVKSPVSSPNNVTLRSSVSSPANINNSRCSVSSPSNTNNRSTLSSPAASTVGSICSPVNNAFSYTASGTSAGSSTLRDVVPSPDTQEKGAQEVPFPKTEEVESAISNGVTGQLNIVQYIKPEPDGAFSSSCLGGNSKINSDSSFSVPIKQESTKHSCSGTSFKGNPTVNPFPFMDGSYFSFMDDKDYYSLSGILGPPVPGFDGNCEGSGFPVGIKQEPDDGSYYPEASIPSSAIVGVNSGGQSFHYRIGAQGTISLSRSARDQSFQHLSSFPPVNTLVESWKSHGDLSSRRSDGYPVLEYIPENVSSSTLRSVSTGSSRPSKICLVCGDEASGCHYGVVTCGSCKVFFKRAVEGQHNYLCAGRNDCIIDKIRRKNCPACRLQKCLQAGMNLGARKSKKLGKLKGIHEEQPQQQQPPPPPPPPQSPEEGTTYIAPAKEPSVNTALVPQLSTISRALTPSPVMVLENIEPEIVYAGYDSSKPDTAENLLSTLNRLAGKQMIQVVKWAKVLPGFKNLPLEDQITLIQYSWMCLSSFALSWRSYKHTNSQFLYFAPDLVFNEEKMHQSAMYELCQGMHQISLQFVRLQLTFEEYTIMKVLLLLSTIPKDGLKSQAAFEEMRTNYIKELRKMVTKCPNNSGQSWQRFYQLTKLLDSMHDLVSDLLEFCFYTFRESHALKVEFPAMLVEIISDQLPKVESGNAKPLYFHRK

[8] = target: T3, Mineralocorticoid receptor (Homo sapiens); assay: Agonist activity at mineralocorticoid receptor by transactivation assay; format: functional
[9] = target: T4, Glucocorticoid receptor (Homo sapiens) (UniProt P04150); assay: Agonist activity at glucocorticoid receptor by transactivation assay; format: functional
T4 sequence (whole entry): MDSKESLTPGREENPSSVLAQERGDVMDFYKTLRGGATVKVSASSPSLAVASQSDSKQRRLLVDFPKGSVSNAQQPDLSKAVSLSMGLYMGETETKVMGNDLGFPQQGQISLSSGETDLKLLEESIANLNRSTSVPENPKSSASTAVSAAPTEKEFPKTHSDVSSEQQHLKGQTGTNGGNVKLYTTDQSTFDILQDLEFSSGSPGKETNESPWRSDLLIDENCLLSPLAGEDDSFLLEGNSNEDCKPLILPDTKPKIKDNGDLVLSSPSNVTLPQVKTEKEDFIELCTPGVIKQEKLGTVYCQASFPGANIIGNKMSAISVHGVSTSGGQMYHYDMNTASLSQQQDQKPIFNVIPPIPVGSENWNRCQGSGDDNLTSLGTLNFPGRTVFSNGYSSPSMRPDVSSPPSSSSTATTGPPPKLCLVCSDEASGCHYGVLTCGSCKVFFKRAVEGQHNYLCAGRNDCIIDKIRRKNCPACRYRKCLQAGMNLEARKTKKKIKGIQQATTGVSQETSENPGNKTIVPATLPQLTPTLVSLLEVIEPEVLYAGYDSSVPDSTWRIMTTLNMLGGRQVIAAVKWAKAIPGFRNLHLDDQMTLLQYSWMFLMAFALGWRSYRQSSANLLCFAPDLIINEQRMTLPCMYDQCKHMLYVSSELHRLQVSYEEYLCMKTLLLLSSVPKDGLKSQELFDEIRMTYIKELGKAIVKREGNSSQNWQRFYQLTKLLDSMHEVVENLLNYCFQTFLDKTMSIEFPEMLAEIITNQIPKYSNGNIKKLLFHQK

[10] = target: T4, Glucocorticoid receptor (Homo sapiens); assay: (§1) Antagonist activity at glucocorticoid receptor by transactivation assay; format: functional
Glucocorticoid receptor = target: T5, Glucocorticoid receptor (Homo sapiens, UniProt P04150); assay: as §1; format: functional
T5 sequence (P04150 whole entry): T4 sequence (whole entry)

## CCC[C@@H]1COc2c(ccc3[nH]c(=O)cc(C(F)(F)F)c23)N1
Androgen receptor [1]
  pEC50: < 5.00
Androgen receptor [2]
  pIC50: 6.95

## CC[C@@H]1COc2c(ccc3[nH]c(=O)cc(C(F)(F)F)c23)N1C
Androgen receptor [1]
  pEC50: < 5.00

## O=c1cc(C(F)(F)F)c2c3c(ccc2[nH]1)N[C@H](c1ccccc1)CO3
Androgen receptor [1]
  pEC50: < 5.00
Androgen receptor [2]
  pIC50: 5.83

## O=c1cc(C(F)(F)F)c2c3c(ccc2[nH]1)N(CC(F)(F)F)CCO3
Androgen receptor [1]
  pEC50: 6.72

## O=c1cc(C(F)(F)F)c2c3c(ccc2[nH]1)N(CC1CC1)C(c1ccccc1)CO3 (stereo not given)
Androgen receptor [1]
  pEC50: 8.46
Androgen receptor [2]
  pIC50: < 5.00

## CCN1c2ccc3[nH]c(=O)cc(C(F)(F)F)c3c2OC[C@H]1C
Androgen receptor [1]
  pEC50: 6.38

## CCCN1c2ccc3[nH]c(=O)cc(C(F)(F)F)c3c2OC[C@H]1CC
Androgen receptor [1]
  pEC50: 6.40
Androgen receptor [2]
  pIC50: < 5.00

## O=c1cc(C(F)(F)F)c2c3c(ccc2[nH]1)N(CC1CC1)[C@@H](c1ccccc1)CO3
Androgen receptor [1]
  pEC50: 7.74
Androgen receptor [2]
  pIC50: < 5.00

## CC(C)[C@@H]1COc2c(ccc3[nH]c(=O)cc(C(F)(F)F)c23)N1C
Androgen receptor [1]
  pEC50: 6.56

## O=c1cc(C(F)(F)F)c2c3c(ccc2[nH]1)N(CC(F)(F)F)[C@H](Cc1ccccc1)CO3
Androgen receptor [1]
  pEC50: 7.37
Androgen receptor [2]
  pIC50: < 5.00

## CCN1c2ccc3[nH]c(=O)cc(C(F)(F)F)c3c2OC[C@H]1C(C)C
Androgen receptor [2]
  pIC50: < 5.00

## C=CCN1c2ccc3[nH]c(=O)cc(C(F)(F)F)c3c2OC[C@H]1CC
Androgen receptor [1]
  pEC50: 7.29
Androgen receptor [2]
  pIC50: < 5.00

## O=c1cc(C(F)(F)F)c2c3c(ccc2[nH]1)NCCO3
Androgen receptor [1]
  pEC50: < 5.00
Androgen receptor [2]
  pIC50: 5.82

## O=c1cc(C(F)(F)F)c2c3c(ccc2[nH]1)N(CC1CC1)[C@H](c1ccccc1)CO3
Androgen receptor [1]
  pEC50: < 5.00
Androgen receptor [2]
  pIC50: 7.35

## C[C@@H]1COc2c(ccc3[nH]c(=O)cc(C(F)(F)F)c23)N1C
Androgen receptor [1]
  pEC50: < 5.00

## CCCN1c2ccc3[nH]c(=O)cc(C(F)(F)F)c3c2OC[C@H]1C
Androgen receptor [1]
  pEC50: 6.39

## CC[C@@H]1COc2c(ccc3[nH]c(=O)cc(C(F)(F)F)c23)N1CC(F)(F)F
[3]
  Activity: inactive
Rattus norvegicus [4]
  Activity: Active
[5]
  Efficacy: 94%
Androgen receptor [1]
  pEC50: 9.00
Androgen receptor [2]
  pIC50: < 5.00
Rattus norvegicus [6]
  Activity: Active
[7]
  Activity: inactive
[8]
  Activity: inactive
[9]
  Activity: inactive
[10]
  Efficacy: 98%

## CC[C@@H]1COc2c(ccc3[nH]c(=O)cc(C(F)(F)F)c23)N1CC
Androgen receptor [2]
  pIC50: < 5.00

## C[C@@H]1COc2c(ccc3[nH]c(=O)cc(C(F)(F)F)c23)N1CC(F)(F)F
[3]
  Activity: inactive
[5]
  Efficacy: 40%
Androgen receptor [1]
  pEC50: 8.27
Androgen receptor [2]
  pIC50: < 5.00
[7]
  Activity: inactive
[8]
  Activity: inactive
[9]
  Activity: inactive
[10]
  Efficacy: 53%
Glucocorticoid receptor
  pIC50: 5.49

## CC[C@@H]1COc2c(ccc3[nH]c(=O)cc(C(F)(F)F)c23)N1CC(C)C
Androgen receptor [1]
  pEC50: 6.64
Androgen receptor [2]
  pIC50: < 5.00

## C=CCN1c2ccc3[nH]c(=O)cc(C(F)(F)F)c3c2OC[C@H]1C(C)C
Androgen receptor [2]
  pIC50: < 5.00

## CC(C)C[C@@H]1COc2c(ccc3[nH]c(=O)cc(C(F)(F)F)c23)N1CC(F)(F)F
Androgen receptor [1]
  pEC50: 7.01

## CC[C@@H]1COc2c(ccc3[nH]c(=O)cc(C(F)(F)F)c23)N1
[3]
  Activity: inactive
[5]
  Efficacy: 42%
Androgen receptor [1]
  pEC50: < 5.00
Androgen receptor [2]
  pIC50: 7.08
[7]
  Activity: inactive
[8]
  Activity: inactive
[9]
  Activity: inactive

## CC[C@@H]1COc2c(ccc3[nH]c(=O)cc(C(F)(F)F)c23)N1CC(C)(C)O
Androgen receptor [1]
  pEC50: 6.52
Androgen receptor [2]
  pIC50: < 5.00

## CC(C)[C@@H]1COc2c(ccc3[nH]c(=O)cc(C(F)(F)F)c23)N1CC(F)(F)F
Androgen receptor [1]
  pEC50: 7.70
Androgen receptor [2]
  pIC50: < 5.00
